Experimental data from patent US10544141B2, “Derivatives and methods of treating hepatitis B infections” (Novira Therapeutics, Inc., priority 2014, dated 2020).

system: HBV; assay: HBV replication inhibition assay (BDNA assay) in HepG2.2.15 cells; format: cell-based; conditions: 6 days treatment, encapsidated HBV DNA in supernatant by branched DNA QuantiGene assay
Excerpt: HBV replication inhibition by the compounds of this invention could be determined in cells infected or transfected with HBV, or cells with stably integrated HBV, such as HepG2.2.15 cells (Sells et al. 1987). In this example, HepG2.2.15 cells were maintained in cell culture medium containing 10% fetal bovine serum (FBS), Geneticin, L-glutamine, penicillin and streptomycin. HepG2.2.15 cells could be seeded in 96-well plates at a density of 40,000 cells/well and be treated with serially diluted compounds at a final DMSO concentration of 0.5% either alone or in combination by adding drugs in a checker box format. Cells were incubated with compounds for three days, after which medium was removed and fresh medium containing compounds was added to cells and incubated for another three days. At day 6, supernatant was removed and treated with DNase at 37° C. for 60 minutes, followed by enzyme inactivation at 75° C. for 15 minutes. Encapsidated HBV DNA was released from the virions and covalently linked HBV polymerase by incubating in lysis buffer (Affymetrix QS0010) containing 2.5 μg proteinase K at 50° C. for 40 minutes. HBV DNA was denatured by addition of 0.2 M NaOH and detected using a branched DNA (BDNA) QuantiGene assay kit according to manufacturer recommendation (Affymetrix). HBV DNA levels could also be quantified using qPCR, based on amplification of encapsidated HBV DNA extraction with QuickExtraction Solution (Epicentre Biotechnologies) and amplification of HBV DNA using HBV specific PCR probes that can hybridize to HBV DNA and a fluorescently labeled probe for quantitation. In addition, cell viability of HepG2.2.15 cells incubated with test compounds alone or in combination was determined by using CellTitre-Glo reagent according to the manufacturer protocol (Promega). The mean background signal from wells containing only culture medium was subtracted from all other samples, and percent inhibition at each compound concentration was calculated by normalizing to signals from HepG2.2.15 cells treated with 0.5% DMSO using equation E1. % inhibition=(DMSOave−Xi)/DMSOave×100% E1: where DMSOave is the mean signal calculated from the wells that were treated with DMSO control (0% inhibition control) and Xi is the signal measured from the individual wells. EC50 values, effective concentrations that achieved 50% inhibitory effect, were determined by non-linear fitting using Graphpad Prism software (San Diego, Calif.) and equation E2 Y=Y min+(Y max−Y min)/(1+10(Log EC50−X)×HillSlope) E2: […]
where Y represents percent inhibition values and X represents the logarithm of compound concentrations.
Selected compounds of the invention were assayed in the HBV replication assay (BDNA assay), as described above and a representative group of these active compounds is shown in Table 3. […] In Table 3, “A” represents 0.01<EC50<0.10; “B” represents 0.10≤EC50<0.50; and “C” represents 0.50≤EC50<1.0; (‘+’ indicates >50% activity at 10 μM).

In the case of `O=C(Nc1cccc(Cl)c1)N1CCc2[nH]nc(O)c2C1` [Compound 241, N-(3-chlorophenyl)-3-hydroxy-1,4,6,7-tetrahydropyrazolo[4,3-c] pyridine-5-carboxamide], the “HBV replication inhibition >50% at 10 μM (qualitative flag)” value (from here on “HBV replication inhibition >50% at 10 μM”) is reported as “+ (‘+’ indicates >50% activity at 10 μM)”.
For `O=C(Nc1cccc(Cl)c1)N1CCc2[nH]nc(Br)c2C1` [Compound 260], the “HBV replication inhibition >50% at 10 μM” value was “+ (‘+’ indicates >50% activity at 10 μM)”.
In the case of `CC(CO)c1n[nH]c2c1CN(C(=O)Nc1cccc(Cl)c1)CC2` (centres unmarked) [Compound 388, N-(3-chlorophenyl)-3-(2-hydroxy-1-methyl-ethyl)-1,4,6,7-tetrahydropyrazolo[4,3-c]pyridine-5-carboxamide], the “HBV replication inhibition >50% at 10 μM” value is reported as “+ (‘+’ indicates >50% activity at 10 μM)”.

same assay, conditions: Hepatitis B virus, HepG2.2.15, 144 h, 6 days treatment, encapsidated HBV DNA in supernatant by branched DNA QuantiGene assay

`O=C(Nc1cccc(Cl)c1)N1CCc2[nH]nc(C3CCCC3)c2C1` [Compound 264, N-(3-chlorophenyl)-3-cyclopentyl-1,4,6,7-tetrahydro pyrazolo[4,3-c]pyridine-5-carboxamide] and `O=C(Nc1cccc(Cl)c1)N1CCc2[nH]nc(C3CCC3)c2C1` [Compound 554, N-(3-chlorophenyl)-3-cyclobutyl-1,4,6,7-tetrahydropyrazolo[4,3-c]pyridine-5-carboxamide] fall in the same range of EC50: 10 to 100 nM for the first, 10 to 100 nM for the second.

`CC(C)c1n[nH]c2c1CN(C(=O)Nc1cccc(Cl)c1)CC2` [Compound 267] and `CC(C)(C)c1n[nH]c2c1CN(C(=O)Nc1cccc(Cl)c1)CC2` [Compound 515, 3-tert-butyl-N-(3-chlorophenyl)-1,4,6,7-tetrahydropyrazolo[4,3-c]pyridine-5-carboxamide] fall in the same range of EC50: 100 to 500 nM for the first, 100 to 500 nM for the second.

First: O=C(Nc1cccc(Cl)c1)N1CCc2[nH]nc(C3=CCOCC3)c2C1 [Compound 274]
Second: O=C(Nc1cccc(Cl)c1)N1CCc2[nH]nc(C3=CCCC3)c2C1 [Compound 338, N-(3-chlorophenyl)-3-(cyclopenten-1-yl)-1,4,6,7-tetrahydropyrazolo[4,3-c]pyridine-5-carboxamide]
The EC50 of the first is higher: 100 to 500 nM for the first, 10 to 100 nM for the second.

`O=C(Nc1cccc(Cl)c1)N1CCc2[nH]nc(C3CCOCC3)c2C1` [Compound 275] and `O=C(Nc1cccc(Cl)c1)N1CCc2[nH]nc(C3CC3)c2C1` [Compound 440, N-(3-chlorophenyl)-3-cyclopropyl-1,4,6,7-tetrahydropyrazolo[4,3-c]pyridine-5-carboxamide] fall in the same range of EC50: 100 to 500 nM for the first, 100 to 500 nM for the second.

First: C=C(C)c1n[nH]c2c1CN(C(=O)Nc1cccc(Cl)c1)CC2 [Compound 336]
Second: C=C(C)c1n[nH]c2c1CN(C(=O)Nc1cccc(C)c1)CC2 [Compound 549, 3-isopropenyl-N-(m-tolyl)-1,4,6,7-tetrahydropyrazolo[4,3-c]pyridine-5-carboxamide]
The EC50 of the first is lower: 10 to 100 nM for the first, 100 to 500 nM for the second.

`O=C(Nc1cccc(Cl)c1)N1CCc2[nH]nc(C3=CCCCC3)c2C1` [Compound 337, N-(3-chlorophenyl)-3-(cyclohexen-1-yl)-1,4,6,7-tetrahydro pyrazolo[4,3-c]pyridine-5-carboxamide] and `O=C(Nc1cccc(Cl)c1)N1CCc2[nH]nc(C3=CC(F)CC3)c2C1` (centres unmarked) [Compound 744, N-(3-chlorophenyl)-3-(3-fluorocyclopenten-1-yl)-1,4,6,7-tetrahydropyrazolo[4,3-c]pyridine-5-carboxamide] fall in the same range of EC50: 10 to 100 nM for the first, 10 to 100 nM for the second.

First: CC1(c2n[nH]c3c2CN(C(=O)Nc2cccc(Cl)c2)CC3)CC1 [Compound 441]
Second: CC1(c2n[nH]c3c2CN(C(=O)Nc2cccc(Cl)c2)CC3)CCC1 [Compound 694, N-(3-chlorophenyl)-3-(1-methylcyclobutyl)-1,4,6,7-tetrahydropyrazolo[4,3-c]pyridine-5-carboxamide]
The EC50 of the first is higher: 100 to 500 nM for the first, 10 to 100 nM for the second. The second is the more potent here.

First: O=C(Nc1cccc(Cl)c1)N1CCc2[nH]nc(N3CCCC3)c2C1 [Compound 455, N-(3-chlorophenyl)-3-pyrrolidin-1-yl-1,4,6,7-tetrahydropyrazolo[4,3-c] pyridine-5-carboxamide]
Second: O=C(Nc1cccc(Cl)c1)N1CCc2[nH]nc(C34CCCC3C4)c2C1 (centres unmarked) [Compound 546, 3-(1-bicyclo[3.1.0]hexanyl)-N-(3-chlorophenyl)-1,4,6,7-tetrahydropyrazolo[4,3-c]pyridine-5-carboxamide]
The EC50 of the first is higher: 100 to 500 nM for the first, 10 to 100 nM for the second. The second is the more potent here.

First: C=C(C)c1n[nH]c2c1CN(C(=O)Nc1ccnc(Cl)c1F)CC2 [Compound 547]
Second: C=C(C)c1n[nH]c2c1CN(C(=O)Nc1cccc(Br)c1F)CC2 [Compound 548]
The EC50 of the first is higher: 100 to 500 nM for the first, 10 to 100 nM for the second.

`CCC(C)(C)c1n[nH]c2c1CN(C(=O)Nc1cccc(Cl)c1)CC2` [Compound 604, N-(3-chlorophenyl)-3-(1,1-dimethylpropyl)-1,4,6,7-tetrahydropyrazolo [4,3-c]pyridine-5-carboxamide] and `CCC(F)(F)c1n[nH]c2c1CN(C(=O)Nc1cccc(Cl)c1)CC2` [Compound 696, N-(3-chlorophenyl)-3-(1,1-difluoropropyl)-1,4,6,7-tetra hydropyrazolo[4,3-c]pyridine-5-carboxamide] fall in the same range of EC50: 100 to 500 nM for the first, 100 to 500 nM for the second.

Compared with `CCCC(F)(F)c1n[nH]c2c1CN(C(=O)Nc1cccc(Cl)c1)CC2` [Compound 642, N-(3-chlorophenyl)-3-(1,1-difluorobutyl)-1,4,6,7-tetrahydropyrazolo[4,3-c]pyridine-5-carboxamide], `CCCc1n[nH]c2c1CN(C(=O)Nc1cccc(Cl)c1)CC2` [Compound 644, N-(3-chlorophenyl)-3-propyl-1,4,6,7-tetrahydropyrazolo[4,3-c]pyridine-5-carboxamide] is higher in EC50: 10 to 100 nM for the first, 100 to 500 nM for the second. The first is the more potent here.

`O=C(Nc1ccnc(Cl)c1F)N1CCc2[nH]nc(C3CCC3)c2C1` [Compound 660] and `O=C(Nc1ccnc(Br)c1F)N1CCc2[nH]nc(C3CCC3)c2C1` [Compound 664] fall in the same range of EC50: 100 to 500 nM for the first, 100 to 500 nM for the second.

First: Cc1cccc(NC(=O)N2CCc3[nH]nc(C4CCC4)c3C2)c1 [Compound 661]
Second: O=C(Nc1cccc(Br)c1)N1CCc2[nH]nc(C3CCC3)c2C1 [Compound 663]
The EC50 of the first is higher: 100 to 500 nM for the first, 10 to 100 nM for the second.

`O=C(Nc1cccc(Br)c1F)N1CCc2[nH]nc(C3CCC3)c2C1` [Compound 662] and `O=C(Nc1ccc(F)c(Br)c1)N1CCc2[nH]nc(C3CCC3)c2C1` [Compound 667] fall in the same range of EC50: 10 to 100 nM for the first, 10 to 100 nM for the second.

`O=C(Nc1ccc(F)c(Cl)c1)N1CCc2[nH]nc(C3CCC3)c2C1` [Compound 665] and `Cc1cc(NC(=O)N2CCc3[nH]nc(C4CCC4)c3C2)ccc1F` [Compound 666] fall in the same range of EC50: 10 to 100 nM for the first, 10 to 100 nM for the second.

First: N#Cc1cc(NC(=O)N2CCc3[nH]nc(C4CCC4)c3C2)ccc1F [Compound 668]
Second: O=C(Nc1ccc(F)c(F)c1)N1CCc2[nH]nc(C3CCC3)c2C1 [Compound 669]
The EC50 of the first is lower: 10 to 100 nM for the first, 100 to 500 nM for the second.

First: O=C(Nc1cccc(Cl)c1)N1CCc2[nH]nc(C3CC=CC3)c2C1 [Compound 693, N-(3-chlorophenyl)-3-cyclopent-3-en-1-yl-1,4,6,7-tetrahydropyrazolo[4,3-c]pyridine-5-carboxamide]
Second: O=C(Nc1cccc(Cl)c1)N1CCc2[nH]nc(C3CCC(O)C3)c2C1 (centres unmarked) [Compound 742, N-(3-chlorophenyl)-3-(3-hydroxycyclopentyl)-1,4,6,7-tetrahydropyrazolo[4,3-c] pyridine-5-carboxamide]
The EC50 of the first is lower: 10 to 100 nM for the first, 100 to 500 nM for the second. The first is the more potent here.

Molecule `O=C(Nc1cccc(Cl)c1)N1CCc2[nH]nc(C3(C(F)(F)F)CC3)c2C1` [Compound 700, N-(3-chlorophenyl)-3-[1-(trifluoromethyl)cyclopropyl]-1,4,6,7-tetrahydropyrazolo[4,3-c]pyridine-5-carboxamide] has an EC50 of 100 to 500 nM.
